Values of other authors as cited in article PMC10969742, “A Phase I Study of the Oral Dual-Acting Pan-PI3K/mTOR Inhibitor Bimiralisib in Patients with Advanced Solid Tumors” (Cancers, 2024).

Test system: head and neck squamous cancer with loss of function NOTCH1T1997M mutations
Conditions: eight patients, intermittent bimiralisib regimen; cited from earlier work

Nc1cc(C(F)(F)F)c(-c2nc(N3CCOCC3)nc(N3CCOCC3)n2)cn1 [bimiralisib, 5-(4,6-Dimorpholino-1,3,5-triazin-2-yl)-4-(trifluoromethyl)pyridin-2-amine]
Confirmed PR, number of patients: one
SDs, number of patients: three
